We go through 11 compounds from patent publication US11584737B2, “Heterocyclic compound” (TAKEDA PHARMACEUTICAL COMPANY LIMITED, priority 2018, dated 2023).

The target of one experiment is CDK12/CycK complex (Homo sapiens, UniProt Q9NYV4). The experiment can be described thus: Measurement of CDK12 inhibitory activity by binding assay (TR-FRET, 66 nM BODIPY-FL-labeled AT-7519). Particulars: inhibitory rate against CDK12 at 1 μM test compound, 66 nM BODIPY-FL-labeled AT-7519, 2 nM CDK12/CycK. Summed up:
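His-tagged CDK12/CycK (2 nM) premixed with 66 nM BODIPY-FL-AT-7519 tracer, 0.2 nM Tb-streptavidin and 0.4 nM biotin-anti-His, then incubated with compound 120 min at room temperature. Tracer displacement read as BODIPY-FL/Tb TR-FRET ratio; percent inhibition normalized to no-compound control and 3 μM AT-7519 blank.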
(TR-FRET usually uses a lanthanide donor and a delayed reading to cut background.)

For the next experiment, the target named is CDK12/CycK enzyme (Homo sapiens, UniProt Q9NYV4). The experiment can be described thus: Measurement of CDK12/CycK inhibitory activity (ULight-4E-BP1 peptide phosphorylation, LANCE). The format is biochemical. Particulars: inhibitory rate against CDK12/CycK at 1 μM test compound, ATP 10 μM or 500 μM. How it is done:
Experimental Example 2: Measurement of CDK12/CycK Inhibitory Activity
A test compound dissolved in DMSO was added to a reaction solution (50 mM HEPES (pH 7.5), 10 mM MgCl2, 1 mM DTT, 0.01% Tween 20, 0.01% BSA) containing CDK12/CycK enzyme and ULight-labeled eIF4E-binding protein 1 (4E-BP1) (Thr37/Thr46) peptide (PerkinElmer), and the mixture was reacted at room temperature for 60 min. […] was added to give an ATP solution with a final concentration of 10 μM or 500 μM to start the enzyme reaction, and the mixture was reacted at room temperature for 60 min. A LANCE Detection buffer (PerkinElmer) containing europium-labeled anti-phosphorylation 4E-BP1 (Thr37/Thr46) antibody (PerkinElmer) and EDTA (final concentration 10 mM) was added to discontinue the reaction. After standing for 60 min, time decomposition fluorescence value (excitation 320 nm, emission 615 nm, 665 nm) was measured by Envision (PerkinElmer). The inhibitory rate (%) of the test compound against CDK12/CyclinK was calculated by the following formula. Inhibitory rate (%)=(1−(count of test compound−blank)÷(control−blank))×100
The count of the CDK12 enzyme reaction mixture under compound non-addition conditions is indicated as control, and the count under compound non-addition and CDK12/CycK enzyme non-addition conditions is indicated as blank.
The results measured by the above-mentioned method (inhibitory rate (%) of the signal value at 1 μM test compound relative to control is shown below.

Experiment [1] deals with A2780 intracellular CTD pSer2. The experiment can be described thus: CTD pSer2 measurement using human ovarian cancer cell A2780 and In-Cell Western method. The format is cell-based. The settings on record: inhibitory rate against A2780 intracellular CTD pSer2 at 1 μM test compound, 4 hr. As for the experimental part: Experimental Example 3: CTD pSer2 Measurement Using Human Ovarian Cancer Cell A2780 and In-Cell Western Method
A2780 cells (ATCC) were seeded in a 96 well plate at 1.8×10^4 cells/well, and the cells were cultured overnight in a cell culture medium RPMI1640 (FUJIFILM Wako Pure Chemical Corporation) containing 10% FBS (fetal bovine serum) and 1% penicillin/streptomycin. A test compound dissolved in a cell medium was added, and the mixture was stood for 4 hr in a CO2 incubator (37° C.). The cells were fixed with ALTFiX (Falma) for 30 min, and washed 3 times with a washing buffer (20 mM Tris-HCl (pH 7.5), 500 mM NaCl, 0.1% Tween20). 0.1% Triton-X-100 diluted with PBS(−) was added and the mixture was incubated at room temperature for 15 min. Thereafter, a blocking buffer (LI-COR) was added, and the mixture was incubated at room temperature for 1 hr. An anti-CTD pS2 antibody (Abcam) suspended in an antibody diluent (blocking buffer: PBS(−)-diluted 0.1% Tween20=1:1) was added, and the mixture was incubated at room temperature for 1 hr. The mixture was […] with a washing buffer, IRDye800CW-labeled anti-goat antibody (LI-COR) was added, and the mixture was incubated at room temperature for 1 hr. The mixture was washed 3 times with a washing buffer, and the fluorescence wavelength at 800 nm was measured by Aerius (LI-COR).
The inhibitory rate (%) of the test compound against A2780 intracellular CTD pSer2 was calculated by the following formula. Inhibitory rate (%)=(1−(count of test compound−blank)÷(control−blank))×100
The count of the A2780 cell under compound non-addition conditions is indicated as control, and the count under compound non-addition and primary antibody non-addition conditions is indicated as blank.
The results measured by the above-mentioned method (inhibitory rate of the signal value at 1 μM test compound relative to control) are shown below.

A further experiment concerns A2780 cells. The experiment can be described thus: In vitro proliferation suppression test (CellTiter-Glo). The format is cell-based, human. Particulars: Homo sapiens, 72 h, A2780 cell proliferation inhibitory rate at 1 μM test compound, three days. As for the experimental part: Experimental Example 4: In Vitro Proliferation Suppression Test
The proliferation suppressive activity of compound in A2780 cells was evaluated by the following method.
A2780 cells were seeded in a 384-well white plate at a cell density of 1,000 cells/40 μL/well or a 96-well white plate at a cell density of 1,000 cells/90 μL/well using an assay medium (RPMI1640 medium containing 10% fetal bovine serum (FUJIFILM Wako Pure Chemical Corporation)) and incubated at 37° C. in 5% CO2.
The next day, a test compound dissolved in dimethyl sulfoxide (DMSO) was diluted with an assay medium, the obtained compound solution was added by 40 μL/well or 10 μL/well to each well of the plate containing A2780 cells and the mixture was incubated (test compound addition group). In addition, a similar reaction was performed without adding the test compound (test compound non-addition group).
Three days later, 80 μL or 100 μL of CellTiter-Glo reagent (Promega) was added, and the mixture was stirred for 10 min. Thereafter, the luminescence of each well was measured by ARVO-MX multilabel counter (Perkin Elmer Inc.).
The proliferation inhibitory rate (%) of each test compound against A2780 cells was calculated by the following calculation formula. Proliferation inhibitory rate (%)=(1−luminescence of test compound addition group÷luminescence of test compound non-addition group)×100
The A2780 cell proliferation inhibitory rate (%) of 1 μM test compound is shown below.
Background: In ATP-based viability assays light output follows the ATP content of the culture.

Sequence of CDK12/CycK enzyme (Q9NYV4 whole entry, species assumed): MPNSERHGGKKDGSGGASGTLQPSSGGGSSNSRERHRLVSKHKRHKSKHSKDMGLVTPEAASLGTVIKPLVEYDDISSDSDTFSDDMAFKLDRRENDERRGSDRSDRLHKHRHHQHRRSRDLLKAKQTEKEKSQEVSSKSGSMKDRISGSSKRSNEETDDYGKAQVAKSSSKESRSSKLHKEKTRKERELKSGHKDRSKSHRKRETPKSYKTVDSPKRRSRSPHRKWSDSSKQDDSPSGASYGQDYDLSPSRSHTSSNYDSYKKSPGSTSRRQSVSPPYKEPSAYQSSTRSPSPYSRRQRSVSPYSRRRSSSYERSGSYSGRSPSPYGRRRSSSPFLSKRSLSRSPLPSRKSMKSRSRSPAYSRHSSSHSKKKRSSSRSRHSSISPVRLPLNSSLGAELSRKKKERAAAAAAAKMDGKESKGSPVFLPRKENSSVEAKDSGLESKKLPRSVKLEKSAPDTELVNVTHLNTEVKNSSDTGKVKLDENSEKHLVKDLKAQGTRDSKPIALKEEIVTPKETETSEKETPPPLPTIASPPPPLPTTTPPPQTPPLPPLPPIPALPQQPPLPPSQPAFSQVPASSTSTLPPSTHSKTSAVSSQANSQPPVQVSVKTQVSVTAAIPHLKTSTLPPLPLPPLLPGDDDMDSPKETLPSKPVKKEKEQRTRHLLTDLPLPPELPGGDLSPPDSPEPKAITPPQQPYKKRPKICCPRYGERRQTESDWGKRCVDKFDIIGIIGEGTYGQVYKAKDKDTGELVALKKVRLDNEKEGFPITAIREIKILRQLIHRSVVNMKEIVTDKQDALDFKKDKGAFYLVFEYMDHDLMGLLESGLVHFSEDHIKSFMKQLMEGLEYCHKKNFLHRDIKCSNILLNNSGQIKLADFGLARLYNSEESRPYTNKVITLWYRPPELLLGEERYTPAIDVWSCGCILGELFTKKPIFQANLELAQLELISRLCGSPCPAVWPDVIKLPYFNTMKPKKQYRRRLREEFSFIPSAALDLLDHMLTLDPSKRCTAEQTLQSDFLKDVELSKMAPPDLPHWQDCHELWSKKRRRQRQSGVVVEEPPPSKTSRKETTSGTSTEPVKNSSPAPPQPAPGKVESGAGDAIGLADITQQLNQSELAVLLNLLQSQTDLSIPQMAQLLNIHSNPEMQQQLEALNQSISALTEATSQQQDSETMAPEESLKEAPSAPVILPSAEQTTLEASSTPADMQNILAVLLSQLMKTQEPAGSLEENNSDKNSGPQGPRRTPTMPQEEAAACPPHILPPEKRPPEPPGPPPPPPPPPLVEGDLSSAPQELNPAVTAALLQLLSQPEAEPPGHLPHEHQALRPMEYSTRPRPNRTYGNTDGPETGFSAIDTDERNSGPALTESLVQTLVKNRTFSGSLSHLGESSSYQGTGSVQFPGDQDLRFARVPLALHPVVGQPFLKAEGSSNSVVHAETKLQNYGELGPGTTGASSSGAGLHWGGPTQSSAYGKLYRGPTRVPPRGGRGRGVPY
Sequence of CDK12/CycK enzyme (O75909 whole entry partner, species assumed): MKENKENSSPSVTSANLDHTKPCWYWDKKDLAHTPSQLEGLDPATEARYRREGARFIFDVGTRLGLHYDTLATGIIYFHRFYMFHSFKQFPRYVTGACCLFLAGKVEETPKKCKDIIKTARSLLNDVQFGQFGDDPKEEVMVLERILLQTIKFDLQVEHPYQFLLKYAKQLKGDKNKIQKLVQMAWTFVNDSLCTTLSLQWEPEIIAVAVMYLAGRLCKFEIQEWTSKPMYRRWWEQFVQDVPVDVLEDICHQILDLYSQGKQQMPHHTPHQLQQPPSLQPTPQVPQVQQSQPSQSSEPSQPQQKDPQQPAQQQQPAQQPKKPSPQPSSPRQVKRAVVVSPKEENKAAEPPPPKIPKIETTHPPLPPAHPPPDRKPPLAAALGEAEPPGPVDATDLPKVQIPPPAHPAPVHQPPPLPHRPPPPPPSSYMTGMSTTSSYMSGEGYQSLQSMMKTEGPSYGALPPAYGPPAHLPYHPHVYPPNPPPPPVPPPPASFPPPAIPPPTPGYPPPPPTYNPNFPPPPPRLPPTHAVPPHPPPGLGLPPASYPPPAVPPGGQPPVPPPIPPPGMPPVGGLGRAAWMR
Sequence of CDK12/CycK complex (Q9NYV4 whole entry, species assumed): as the sequence (Q9NYV4 whole entry, species assumed) above
Sequence of CDK12/CycK complex (O75909 whole entry partner, species assumed): as the sequence (O75909 whole entry partner, species assumed) above

By inhibition is commonly meant the change of the read-out against control, counted positive when it falls. `Cn1cc(-c2ccc(N(C(=O)NCc3ccccc3)[C@H]3CC[C@H](Nc4ncc(C#N)c(-c5[nH]ncc5Cl)n4)CC3)nc2)cn1` [Example 536, 3-benzyl-1-(trans-4-((4-(4-chloro-1H-pyrazol-5-yl)-5-cyanopyrimidin-2-yl)amino)cyclohexyl)-1-(5-(1-methyl-1H-pyrazol-4-yl)pyridin-2-yl)urea]: the inhibition at 1 µM at CDK12/CycK complex is 96%; against CDK12/CycK enzyme it was 95%; in experiment [1], 82%; with A2780 cells it was 91%.

Take `COc1ncc(-c2cnc(N(C(=O)OCc3ccccc3)[C@H]3CC[C@H](Nc4ncc(C#N)c(N5CCCC(O)CC5)n4)CC3)nc2)cn1` (stereo partly drawn) [Example 611, benzyl (trans-4-((5-cyano-4-(4-hydroxyazepan-1-yl)pyrimidin-2-yl)amino)cyclohexyl) (2′-methoxy-5,5′-bipyrimidin-2-yl)carbamate]: the inhibition at 1 µM amounted to 101% on CDK12/CycK complex, 101% against CDK12/CycK enzyme, 48% in experiment [1] and 97% in the experiment on A2780 cells.

For the compound `COc1ncc(-c2ccc(N(C(=O)NCc3ccccc3)[C@H]3CC[C@H](Nc4ncc(C(F)(F)F)c(NC5COC5)n4)CC3)nc2)cn1` [Example 589, 3-benzyl-1-(5-(2-methoxypyrimidin-5-yl)pyridin-2-yl)-1-(trans-4-((4-(oxetan-3-ylamino)-5-(trifluoromethyl)pyrimidin-2-yl)amino)cyclohexyl) urea], the inhibition at 1 µM amounted to 100% at CDK12/CycK complex, 115% at CDK12/CycK enzyme, 78% in experiment [1] and 97% with A2780 cells.

With `COc1ncc(-c2cnc(N(C(=O)OCc3ccccc3)[C@H]3CC[C@H](Nc4ncc(C#N)c(NC5COC5)n4)CC3)nc2)cn1` [Example 608, benzyl (trans-4-((5-cyano-4-(oxetan-3-ylamino)pyrimidin-2-yl)amino)cyclohexyl) (2′-methoxy-5,5′-bipyrimidin-2-yl)carbamate], the inhibition at 1 µM came to 98% at CDK12/CycK complex, 102% against CDK12/CycK enzyme, 44% in experiment [1] and 99% in the experiment with A2780 cells.

`COc1ncc(-c2ccc(N(C(=O)OCc3ccccc3)[C@H]3CC[C@H](Nc4ncc(C#N)c(N5CC(F)(CO)C5)n4)CC3)nc2)cn1` [Example 603, benzyl (trans-4-((5-cyano-4-(3-fluoro-3-(hydroxymethyl)-azetidin-1-yl)pyrimidin-2-yl)amino)cyclohexyl) (5-(2-methoxypyrimidin-5-yl)pyridin-2-yl)carbamate]: the inhibition at 1 µM came out at 76% at CDK12/CycK complex, 103% on CDK12/CycK enzyme, 81% in experiment [1] and 93% in the experiment on A2780 cells.

In the case of `COc1ncc(-c2ccc(N(C(=O)NCc3ccccc3)[C@H]3CC[C@H](Nc4ncc(C(F)(F)F)c(OC5COC5)n4)CC3)nc2)cn1` [Example 588, 3-benzyl-1-(5-(2-methoxypyrimidin-5-yl)pyridin-2-yl)-1-(trans-4-((4-(oxetan-3-yloxy)-5-(trifluoromethyl)pyrimidin-2-yl)amino)cyclohexyl)urea], the inhibition at 1 µM was determined as 99% on CDK12/CycK complex, 100% on CDK12/CycK enzyme, 75% in experiment [1] and 98% with A2780 cells.

With `Cn1cc(-c2cnc(N(C(=O)NCc3ccccc3)[C@H]3CC[C@H](Nc4ncc(C#N)c(NC5COC5)n4)CC3)nc2)cn1` [Example 575, 3-benzyl-1-(trans-4-((5-cyano-4-(oxetan-3-ylamino)pyrimidin-2-yl)amino)cyclohexyl)-1-(5-(1-methyl-1H-pyrazol-4-yl)pyrimidin-2-yl)urea], the inhibition at 1 µM amounted to 101% on CDK12/CycK complex, 97% on CDK12/CycK enzyme, 63% in experiment [1] and 99% in the experiment with A2780 cells.

`COc1ncc(-c2ccc(N(C(=O)NCc3ccccc3F)[C@H]3CC[C@H](Nc4ncc(C#N)c(NC5COC5)n4)CC3)nc2)cn1` [Example 582, 1-(trans-4-((5-cyano-4-(oxetan-3-ylamino)pyrimidin-2-yl)amino)cyclohexyl)-3-(2-fluorobenzyl)-1-(5-(2-methoxypyrimidin-5-yl)pyridin-2-yl)urea]: the inhibition at 1 µM at CDK12/CycK complex worked out at 91%; against CDK12/CycK enzyme, 110%; in experiment [1], 72%; with A2780 cells, 97%.

`Cn1cc(-c2cnc(N(C(=O)NCc3ccccc3)[C@H]3CC[C@H](Nc4ncc(C#N)c(NC5COC5)n4)CC3)cn2)cn1` [Example 539, 3-benzyl-1-(trans-4-((5-cyano-4-(oxetan-3-ylamino)pyrimidin-2-yl)amino)cyclohexyl)-1-(5-(1-methyl-1H-pyrazol-4-yl)pyrazin-2-yl)urea]: the inhibition at 1 µM at CDK12/CycK complex came out at 99%; on CDK12/CycK enzyme it was 109%; in experiment [1] it was 71%; in the experiment on A2780 cells, 96%.

As to `COc1ncc(-c2cnc(N(C(=O)NCc3ccccc3)[C@H]3CC[C@H](Nc4ncc(C#N)c(N5CCCC(O)CC5)n4)CC3)nc2)cn1` (stereo partly drawn) [Example 596, 3-benzyl-1-(trans-4-((5-cyano-4-(4-hydroxyazepan-1-yl)pyrimidin-2-yl)amino)cyclohexyl)-1-(2′-methoxy-5,5′-bipyrimidin-2-yl)urea], the inhibition at 1 µM came to 103% on CDK12/CycK complex, 100% against CDK12/CycK enzyme, 71% in experiment [1] and 99% in the experiment on A2780 cells.

In the case of `COc1ncc(-c2ccc(N(C(=O)NCc3ccccc3)[C@H]3CC[C@H](Nc4ncc(C#N)c(-c5cn[nH]c5C)n4)CC3)nc2)cn1` [Example 577, 3-benzyl-1-(trans-4-((5-cyano-4-(5-methyl-1H-pyrazol-4-yl)pyrimidin-2-yl)amino)cyclohexyl)-1-(5-(2-methoxypyrimidin-5-yl)pyridin-2-yl)urea], the inhibition at 1 µM came to 88% at CDK12/CycK complex, 98% against CDK12/CycK enzyme, 87% in experiment [1] and 94% in the experiment with A2780 cells.
